Measurements from patent US6676932B2, “Ultraviolet absorbent, photostabilizer, ultraviolet ray-absorbing composition, photostabilized composition and external preparation for skin” (Shiseido Co., Ltd., priority 2001, dated 2004).
Each block holds one compound with its values, some of them ahead of it.

Key:
Format in all cases: physicochemical
[1] = Dye stabilization effect under daylight exposure (Test Examples 6-91); design: key to Δ E: color difference ΔE in Lab vs. color before daylight exposure; key to Appearance (visual determination): ◯: no change; Δ: almost no change; x: change; details: photostabilizer 0.05 wt %, daylight exposure (80 MJ)
Method: For observation of the change of the appearance of each test sample (determination based on visual observation) and the measurement of color difference (ΔE) before and after daylight exposure (80 MJ), the test sample was prepared.
(§1) With a spectrophotometer, the color was measured on the Lab coordinate system, to calculate the color difference on the basis of the color before daylight exposure. More specifically, the color difference (ΔE) was calculated on the basis of the measured values (L1, a1, b1) before daylight exposure.

[2] = Stabilization effect on perfume under daylight exposure (Test Examples 92 to 181); design: key: ◯: no change; Δ: almost no change; x: change; details: daylight exposure (80 MJ)
Method: Each test sample was prepared for observation of the change of the odor of the test sample (determined by perfume coordinator) before and after daylight exposure (80 MJ).

[3] = Drug stabilization effect under daylight exposure (Test Examples 182 to 211); design: key to Appearance (visual determination): ◯: no change; Δ: almost no change; x: change; details: photostabilizer 0.05 wt %, daylight exposure (80 MJ); for Remaining ratio (%): liquid chromatography
Method: (§2) For observation of the change of the appearance of each test sample (determination based on visual observation) and the measurement of the remaining ratio by liquid chromatography before and after daylight exposure (80 MJ), the test sample was prepared.

[4] = Dye stabilization effect in blend with sequestering agents (Test Examples 212 to 275); details: daylight exposure (80 MJ)
Method: Each test sample was prepared for observation of the change of the appearance of each test sample (determined visually) and measurement of the color difference (ΔE) before and after daylight exposure (80 MJ).
as §1

[5] = Drug stabilization effect blended with sequestering agent (Test Examples 372 to 391); design: key to Appearance (visual determination): ◯: no change; Δ: almost no change; x: change; details: daylight exposure (80 MJ)
Method: Then, the photostabilization effect of the pyridazine derivative in combination with sequestering agents on each drug and the change of the appearance of each composition were examined, by using the following formulation for assessment.
as §2

[6] = dye Blue 1 (Brilliant Blue FCF) 0.0001 wt %
[7] = dye Green 3 (Fast Green FCF) 0.001 wt %
[8] = dye Red 227 (Acid Fuchsine D) 0.0001 wt %
[9] = dye Yellow 5 (Sunset Yellow FCF) 0.001 wt %
[10] = dyes Yellow 203 (Quinoline Yellow WS) 0.0001 + Yellow 5 (Sunset Yellow FCF) 0.0001 wt %
[11] = base perfume Fruity, photostabilizer 0.1 wt %
[12] = natural perfume Nelori oil, photostabilizer 0.1 wt %
[13] = synthetic perfume Limonene oil, photostabilizer 0.05 wt %
[14] = drug L-ascorbic acid 2-glucoside 2.0 wt %
[15] = dye Blue 1 (Brilliant Blue FCF) 0.001, sequestering agent 0.05 alone, photostabilizer 0
[16] = dye Red 227 (Acid Fuchsine D) 0.0001, sequestering agent 0.02 alone, photostabilizer 0
[17] = drug dl-α-tocopherol 2-L-ascorbic acid phosphate diester potassium salt 0.01, sequestering agent blend amount 0.03, photostabilizer 0
[18] = dyes Red 106 (Acid red) 0.00001 + Yellow 203 (Quinoline Yellow WS) 0.0001 wt %
[19] = dyes Red 213 (Rhodamine B) 0.00001 + Blue 1 (Brilliant Blue FCF) 0.00001 wt %
[20] = dyes Red 227 (Acid Fuchsine D) 0.0001 + Yellow 5 (Sunset Yellow FCF) 0.0001 wt %
[21] = dyes Red 401 (Violanin R) 0.0001 + Blue 1 (Brilliant Blue FCF) 0.00001 wt %
[22] = base perfume Muge, photostabilizer 0.05 wt %
[23] = base perfume Spicy, photostabilizer 0.2 wt %
[24] = natural perfume Jasmine oil, photostabilizer 0.05 wt %
[25] = synthetic perfume Rose oxide, photostabilizer 0.2 wt %
[26] = drug Dipotassium glycyrrhizinate 0.05 wt %
[27] = drug dibutylhydroxytoluene 0.01 wt %
[28] = drug dl-α-tocopherol 2-L-ascorbic acid phosphate diester potassium salt 0.01 wt %
[29] = drug Glycyrrhizinic acid dipotassium 0.05, sequestering agent blend amount 0.03, photostabilizer 0
[30] = drug L-ascorbic acid 2-glucoside 2.0, sequestering agent blend amount 0.03, photostabilizer 0
[31] = drug dibutylhydroxy toluene 0.01, sequestering agent blend amount 0.03, photostabilizer 0

Δ E ([4]; dyes Red 106 (Acid Red) 0.00001 + Yellow 203 (Quinoline Yellow WS) 0.0001, sequestering agent blend amount 0.02, photostabilizer 0): 3.56 | Δ E ([4]; dyes Red 213 (Rhodamine B) 0.00001 + Blue 1 (Brilliant Blue FCF) 0.00001, sequestering agent blend amount 0.03, photostabilizer 0): 3.85 | Appearance (visual determination) [5, 17]: x | Remaining ratio (%) [5, 17]: 70.1%
Compound: O=C([O-])CN(CCO)CCN(CC(=O)[O-])CC(=O)[O-].[Na+].[Na+].[Na+] [ethylenediaminehydroxyethyl trisodium triacetate]
Δ E [4, 15]: 7.63 | Δ E [4, 16]: 1.43

Remaining ratio (%) [3, 26]: 96.6% | Remaining ratio (%) [3, 14]: 97.0% | Remaining ratio (%) [3, 27]: 95.2% | Remaining ratio (%) [3, 28]: 94.5% | Remaining ratio (%) ([3]; drug salicylic acid 0.1 wt %): 97.2%
Compound: COc1ccc(C(=O)CC(=O)c2ccc(C(C)(C)C)cc2)cc1 [4-tert-Butyl-4′-methoxydibenzoylmethane, reference compound]
Appearance (visual determination) [1, 6]: Δ | Δ E [1, 6]: 1.49 | Appearance (visual determination) [1, 7]: Δ | Δ E [1, 7]: 0.62 | Appearance (visual determination) [1, 8]: Δ | Δ E [1, 8]: 0.95 | Appearance (visual determination) [1, 9]: Δ | Δ E [1, 9]: 0.88 | Appearance (visual determination) [1, 18]: Δ | Δ E [1, 18]: 1.02 | Appearance (visual determination) [1, 19]: Δ | Δ E [1, 19]: 1.17 | Appearance (visual determination) [1, 20]: Δ | Δ E [1, 20]: 0.80 | Appearance (visual determination) [1, 21]: Δ | Δ E [1, 21]: 0.93 | Appearance (visual determination) [1, 10]: ◯ | Δ E [1, 10]: 0.48 | odor determination [2, 11]: Δ | odor determination [2, 22]: Δ | odor determination ([2]; base perfume Rose, photostabilizer 0.05 wt %): Δ | odor determination [2, 23]: Δ | odor determination ([2]; base perfume Woody, photostabilizer 0.1 wt %): Δ | odor determination [2, 24]: Δ | odor determination ([2]; natural perfume Lavender oil, photostabilizer 0.1 wt %): Δ | odor determination [2, 12]: Δ | odor determination ([2]; natural perfume Rose oil, photostabilizer 0.05 wt %): Δ | odor determination ([2]; natural perfume Ylang ylang oil, photostabilizer 0.2 wt %): Δ | odor determination ([2]; synthetic perfume Citral, photostabilizer 0.1 wt %): Δ | odor determination [2, 13]: Δ | odor determination ([2]; synthetic perfume Linalool, photostabilizer 0.05 wt %): Δ | odor determination ([2]; synthetic perfume Linalyl acetate, photostabilizer 0.1 wt %): Δ | odor determination [2, 25]: Δ | Appearance (visual determination) [3, 26]: Δ | Appearance (visual determination) [3, 14]: Δ | Appearance (visual determination) [3, 27]: Δ | Appearance (visual determination) [3, 28]: Δ | Appearance (visual determination) ([3]; drug salicylic acid 0.1 wt %): Δ

More lines, now with the values behind:

Compound: c1cc(N2CCOCC2)nnc1N1CCOCC1 [3,6-Dimorpholinopyridazine]
Appearance (visual determination) [1, 6]: ◯ | Δ E [1, 6]: 1.25 | Appearance (visual determination) [1, 7]: ◯ | Δ E [1, 7]: 0.44 | Appearance (visual determination) [1, 8]: ◯ | Δ E [1, 8]: 0.53 | Appearance (visual determination) [1, 9]: ◯ | Δ E [1, 9]: 0.51 | Appearance (visual determination) [1, 10]: ◯ | Δ E [1, 10]: 0.40 | odor determination [2, 11]: ◯ | odor determination [2, 12]: ◯ | odor determination [2, 13]: ◯ | Appearance (visual determination) [3, 14]: ◯ | Remaining ratio (%) [3, 14]: 98.5% | Δ E ([4]; dyes Red 213 (Rhodamine B) 0.00001 + Blue 1 (Brilliant Blue FCF) 0.00001, no sequestering agent, photostabilizer blend amount 0.02): 1.98 | Δ E ([4]; dyes Red 213 (Rhodamine B) 0.00001 + Blue 1 (Brilliant Blue FCF) 0.00001, with ethylenediaminehydroxyethyl trisodium triacetate 0.03, photostabilizer blend amount 0.02): 1.32 | Appearance (visual determination) ([5]; drug dibutylhydroxy toluene 0.01, no sequestering agent, photostabilizer blend amount 0.03): Δ | Appearance (visual determination) ([5]; drug dibutylhydroxy toluene 0.01, with sodium metaphosphate 0.03, photostabilizer blend amount 0.03): ◯

Compound: sodium metaphosphate
Δ E [4, 15]: 7.78 | Δ E ([4]; dye Green 3 (Fast Green FCF) 0.001, sequestering agent 0.1 alone, photostabilizer 0): 1.77 | Δ E [4, 16]: 1.37 | Δ E ([4]; dye Yellow 5 (Sunset Yellow FCF) 0.0001, sequestering agent 0.03 alone, photostabilizer 0): 1.68 | Δ E ([4]; dyes Red 227 (Acid Fuchsine D) 0.0001 + Yellow 203 (Quinoline Yellow WS) 0.0001, sequestering agent blend amount 0.02, photostabilizer 0): 3.01 | Δ E ([4]; dyes Red 401 (Violanin R) 0.0001 + Green 3 (Fast Green FCF) 0.00001, sequestering agent blend amount 0.03, photostabilizer 0): 4.23 | Δ E ([4]; dyes Yellow 203 (Quinoline Yellow WS) 0.0001 + Yellow 5 (Sunset Yellow FCF) 0.0001, sequestering agent blend amount 0.01, photostabilizer 0): 1.44 | Appearance (visual determination) [5, 29]: x | Remaining ratio (%) [5, 29]: 85.8% | Appearance (visual determination) [5, 30]: x | Remaining ratio (%) [5, 30]: 85.2% | Appearance (visual determination) [5, 31]: x | Remaining ratio (%) [5, 31]: 54.7%

Compound: Oc1nnccc1N1CCOCC1 [3-Hydroxy-4-morpholinopyridazine, 3-hydroxy-4-morpholinopyridazine]
Appearance (visual determination) [1, 6]: ◯ | Δ E [1, 6]: 1.26 | Appearance (visual determination) [1, 7]: ◯ | Δ E [1, 7]: 0.48 | Appearance (visual determination) [1, 8]: ◯ | Δ E [1, 8]: 0.60 | Appearance (visual determination) [1, 9]: ◯ | Δ E [1, 9]: 0.62 | Appearance (visual determination) [1, 18]: ◯ | Δ E [1, 18]: 0.80 | odor determination [2, 11]: ◯ | odor determination [2, 22]: ◯ | odor determination [2, 23]: ◯ | odor determination [2, 24]: ◯ | odor determination [2, 25]: ◯ | Appearance (visual determination) [3, 26]: ◯ | Remaining ratio (%) [3, 26]: 99.2% | Δ E ([4]; dyes Red 401 (Violanin R) 0.0001 + Blue 1 (Brilliant Blue FCF) 0.00001, no sequestering agent, photostabilizer blend amount 0.02): 1.34 | Δ E ([4]; dyes Red 401 (Violanin R) 0.0001 + Blue 1 (Brilliant Blue FCF) 0.00001, with ethylenediaminetetraacetate trisodium 0.03, photostabilizer blend amount 0.02): 0.91
